In patent publication EP4722213A1, “NITROGEN-CONTAINING FUNCTIONAL GROUP-SUBSTITUTED PYRIDAZINOPYRIDONE DERIVATIVE AND USE THEREOF” (Sichuan Huiyu Pharmaceutical Co., Ltd., priority 2023, dated 2024):
Structures can show the parent of a compound that is named as a salt.

molecular target: T1, SOS1 (Homo sapiens, UniProt Q07889); assay: biochemical
T1 sequence (Q07889 1-1333): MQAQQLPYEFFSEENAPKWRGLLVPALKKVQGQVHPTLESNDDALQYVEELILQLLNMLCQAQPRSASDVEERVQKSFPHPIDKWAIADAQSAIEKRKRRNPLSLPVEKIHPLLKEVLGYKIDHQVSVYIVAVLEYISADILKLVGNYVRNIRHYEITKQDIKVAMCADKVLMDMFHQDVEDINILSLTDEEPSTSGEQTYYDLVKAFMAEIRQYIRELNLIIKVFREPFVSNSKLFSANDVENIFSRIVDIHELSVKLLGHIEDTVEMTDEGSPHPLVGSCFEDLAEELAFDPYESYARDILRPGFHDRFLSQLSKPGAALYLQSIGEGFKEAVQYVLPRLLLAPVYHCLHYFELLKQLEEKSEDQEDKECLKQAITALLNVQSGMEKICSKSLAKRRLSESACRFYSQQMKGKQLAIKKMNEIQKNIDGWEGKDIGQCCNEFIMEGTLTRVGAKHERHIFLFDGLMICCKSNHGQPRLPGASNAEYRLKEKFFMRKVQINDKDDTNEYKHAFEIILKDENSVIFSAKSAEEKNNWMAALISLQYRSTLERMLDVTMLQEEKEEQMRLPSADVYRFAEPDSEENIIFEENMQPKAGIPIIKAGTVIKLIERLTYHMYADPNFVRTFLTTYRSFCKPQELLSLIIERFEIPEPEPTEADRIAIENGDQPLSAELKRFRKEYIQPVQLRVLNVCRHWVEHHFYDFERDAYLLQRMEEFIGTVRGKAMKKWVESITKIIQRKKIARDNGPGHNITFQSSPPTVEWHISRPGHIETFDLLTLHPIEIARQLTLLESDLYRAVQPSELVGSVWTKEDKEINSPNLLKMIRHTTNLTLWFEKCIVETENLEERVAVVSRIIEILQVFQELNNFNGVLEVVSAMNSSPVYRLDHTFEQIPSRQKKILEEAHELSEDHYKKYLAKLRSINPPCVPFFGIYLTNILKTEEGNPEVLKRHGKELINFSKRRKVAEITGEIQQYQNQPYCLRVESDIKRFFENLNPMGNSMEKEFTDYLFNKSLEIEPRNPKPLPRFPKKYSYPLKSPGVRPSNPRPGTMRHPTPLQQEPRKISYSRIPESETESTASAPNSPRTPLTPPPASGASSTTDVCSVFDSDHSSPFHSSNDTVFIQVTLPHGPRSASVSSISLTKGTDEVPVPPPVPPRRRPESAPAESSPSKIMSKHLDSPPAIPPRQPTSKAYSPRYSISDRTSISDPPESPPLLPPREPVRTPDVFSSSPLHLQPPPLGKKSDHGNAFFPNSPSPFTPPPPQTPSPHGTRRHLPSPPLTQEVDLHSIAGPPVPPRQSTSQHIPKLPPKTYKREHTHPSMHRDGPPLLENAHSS

Row | Structure (SMILES) | IC50 [nM]
1 | C[C@@H](Nc1nnc(N2CCC3(C2)CS(=O)(=O)C3)c2cc(=O)n(C3(C)CC3)cc12)c1cccc(C(F)F)c1F [Example 197, (R)-4-((1-(3-(difluoromethyl)-2-fluorophenyl)ethyl)amino)-1-(2,2-dioxido-2-thia-6-azaspiro[3.4]octan-6-yl)-6-(1-methylcyclopropyl) pyrido[3,4-d]pyridazin-7(6H)-one] | 5
2 | C[C@@H](Nc1nnc(N2CCN(C(C)(C)C)CC2)c2cc(=O)n(C3(C)CC3)cc12)c1cccc(C(F)(F)F)c1F [Example 172, (R)-4-((1-(2-fluoro-3-(trifluoromethyl)phenyl)ethyl)amino)-1-(4-tert-butylpiperazin-1-yl)-6-(1-methylcyclopropyl) pyrido[3,4-d]pyridazin-7(6H)-one] | 4.7
3 | Cc1c([C@@H](C)Nc2nnc(N(C)C)c3cc(=O)n(C4(C)CC4)cc23)cccc1C(F)(F)F [Example 64, (R)-1-(dimethylamino)-4-((1-(2-methyl-3-(trifluoromethyl)phenyl)ethyl)amino)-6-(1-methylcyclopropyl) pyrido[3,4-d]pyridazin-7(6H)-one] | 10.7
4 | CCN(CC)c1nnc(N[C@H](C)c2cccc(C(F)F)c2F)c2cn(C3CC3)c(=O)cc12 [Example 17, (R)-6-cyclopropyl-1-(diethylamino)-4-((1-(3-(difluoromethyl)-2-fluorophenyl)ethyl)amino)pyrido[3,4-d]pyridazin-7(6H)-one] | 11.2
5 | C[C@@H](Nc1nnc(N2CC3(COC3)C2)c2cc(=O)n(C3(C)CC3)cc12)c1cccc(C(F)F)c1F [Example 190, (R)-4-((1-(3-(difluoromethyl)-2-fluorophenyl)ethyl)amino)-6-(1-methylcyclopropyl)-1-(2-oxa-6-azaspiro[3.3]heptan-6-yl)pyrido[3,4-d]pyridazin-7(6H)-one] | 4.2
6 | Cc1c(C#N)cccc1[C@@H](C)Nc1nnc(N2CCN(C(C)C)CC2)c2cc(=O)n(C3CC3)cc12 [Example 215, (R)-3-(1-((6-cyclopropyl-1-(4-isopropylpiperazin-1-yl)-7-oxo-6,7-dihydropyrido[3,4-d]pyridazin-4-yl)amino)ethyl)-2-methylbenzonitrile] | 8.6
7 | Cc1c(C#N)cccc1[C@@H](C)Nc1nnc(N2CCC(F)(F)CC2)c2cc(=O)n(C3CC3)cc12 [Example 43, (R)-3-(1-((6-cyclopropyl-1-(4,4-difluoropiperidin-1-yl)-7-oxo-6,7-dihydropyrido[3,4-d]pyridazin-4-yl)amino)ethyl)-2-methylbenzonitrile] | 84.2
8 | C[C@@H](Nc1nnc(N2CC(CO)C2)c2cc(=O)n(C3(C)CC3)cc12)c1cccc(C(F)F)c1F [Example 131, (R)-4-((1-(3-(difluoromethyl)-2-fluorophenyl)ethyl)amino)-1-(3-(hydroxymethyl)azetidin-1-yl)-6-(1-methylcyclopropyl) pyrido[3,4-d]pyridazin-7(6H)-one] | 4.6
9 | C[C@@H](Nc1nnc(NCC(F)F)c2cc(=O)n(C3(C)CC3)cc12)c1cccc(C(F)F)c1F [Example 134, (R)-1-((2,2-difluoroethyl)amino)-4-((1-(3-(difluoromethyl)-2-fluorophenyl)ethyl)amino)-6-(1-methylcyclopropyl) pyrido[3,4-d]pyridazin-7(6H)-one] | 9.5
10 | C[C@@H](Nc1nnc(N2CC(CO)C2)c2cc(=O)n(C3(C)CC3)cc12)c1cccc(C(F)(F)CO)c1 [Example 229, (R)-4-((1-(3-(1,1-difluoro-2-hydroxyethyl)phenyl)ethyl)amino)-1-(3-(hydroxymethyl)azetidin-1-yl)-6-(1-methylcyclopropyl) pyrido[3,4-d]pyridazin-7(6H)-one] | 4.5
11 | Cc1c(C#N)cccc1[C@@H](C)Nc1nnc(N2CCN(C)CC2)c2cc(=O)n(C3CCN(C)CC3)cc12 [Example 135, (R)-2-methyl-3-(1-((1-(4-methylpiperazin-1-yl)-6-(1-methylpiperidin-4-yl)-7-oxo-6,7-dihydropyrido[3,4-d]pyridazin-4-yl)amino)ethyl)benz onitrile formate] | 14.1
12 | Cc1c(C#N)cccc1[C@@H](C)Nc1nnc(N2CCC(F)(F)C2)c2cc(=O)n(C3CC3)cc12 [Example 42, (R)-3-(1-((6-cyclopropyl-1-(3,3-difluoropyrrolidin-1-yl)-7-oxo-6,7-dihydropyrido[3,4-d]pyridazin-4-yl)amino)ethyl)-2-methylbenzonitrile] | 51.3
13 | C[C@@H](Nc1nnc(N2CC[C@@H](O)C2)c2cc(=O)n(C3(C)CC3)cc12)c1cccc(C(F)F)c1F [Example 137, 4-(((R)-1-(3-(difluoromethyl)-2-fluorophenyl)ethyl)amino)-1-((R)-3-hydroxypyrrolidin-1-yl)-6-(1-methylcyclopropyl) pyrido[3,4-d]pyridazin-7(6H)-one formate] | 4.8
14 | C[C@@H](Nc1nnc(N2CC(F)(F)C2)c2cc(=O)n(C3(C)CC3)cc12)c1cccc(C(F)F)c1F [Example 22, (R)-1-(3,3-difluoroazetidin-1-yl)-4-((1-(3-(difluoromethyl)-2-fluorophenyl)ethyl)amino)-6-(1-methylcyclopropyl) pyrido[3,4-d]pyridazin-7(6H)-one] | 16.4
15 | Cc1c(C(F)F)cccc1[C@@H](C)Nc1nnc(N2CCN(C)CC2)c2cc(=O)n(C3(C)CC3)cc12 [Example 213, (R)-4-((1-(3-(difluoromethyl)-2-methylphenyl)ethyl)amino)-6-(1-methylcyclopropyl)-1-(4-methylpiperazin-1-yl)pyrido[3,4-d]pyridazin-7(6H)-one formate] | 6.2
16 | C[C@@H](Nc1nnc(N2CCN(C3CC3)CC2)c2cc(=O)n(C3(C)CC3)cc12)c1cccc(C(F)F)c1F [Example 218, (R)-1-(4-cyclopropylpiperazin-1-yl)-4-((1-(3-(difluoromethyl)-2-fluorophenyl)ethyl)amino)-6-(1-methylcyclopropyl) pyrido[3,4-d]pyridazin-7(6H)-one] | 6
17 | C[C@@H](Nc1nnc(N(C)C)c2cc(=O)n(C3(C)CC3)cc12)c1cccc(C(F)F)c1F [Example 8, (R)-4-((1-(3-(difluoromethyl)-2-fluorophenyl)ethyl)amino)-1-(dimethylamino)-6-(1-methylcyclopropyl) pyrido[3,4-d]pyridazin-7(6H)-one] | 7.7
18 | C[C@@H](Nc1nnc(N(C)C2CC2)c2cc(=O)n(C3(C)CC3)cc12)c1cccc(C(F)F)c1F [Example 225, (R)-1-(cyclopropyl(methyl)amino)-4-((1-(3-(difluoromethyl)-2-fluorophenyl)ethyl)amino)-6-(1-methylcyclopropyl) pyrido[3,4-d]pyridazin-7(6H)-one] | 7.6
19 | Cc1c([C@@H](C)Nc2nnc(N3CCS(=O)(=O)CC3)c3cc(=O)n(C4CC4)cc23)cccc1C(F)(F)F [Example 59, (R)-6-cyclopropyl-1-(1,1-dioxidothiomorpholino)-4-((1-(2-methyl-3-(trifluoromethyl)phenyl)ethyl)amino)pyr ido[3,4-d]pyridazin-7(6H)-one] | 27.4
20 | Cc1c([C@@H](C)Nc2nnc(N3CCC(F)(F)CC3)c3cc(=O)n(C4(C)CC4)cc23)cccc1C(F)(F)F [Example 65, (R)-1-(4,4-difluoropiperidin-1-yl)-4-((1-(2-methyl-3-(trifluoromethyl)phenyl)ethyl)amino)-6-(1-methylcyclopropyl) pyrido[3,4-d]pyridazin-7(6H)-one] | 61
21 | Cc1c(C#N)cccc1[C@@H](C)Nc1nnc(N2CCCC2)c2cc(=O)n(C3(C)CC3)cc12 [Example 45, (R)-2-methyl-3-(1-((6-(1-methylcyclopropyl)-7-oxo-1-(pyrrolidin-1-yl)-6,7-dihydropyrido[3,4-d]pyridazin-4-yl)amino)ethyl)benz onitrile] | 6.2
22 | Cc1c([C@@H](C)Nc2nnc(N3CCC(F)(F)C3)c3cc(=O)n(C4CC4)cc23)cccc1C(F)(F)F [Example 55, (R)-6-cyclopropyl-1-(3,3-difluoropyrrolidin-1-yl)-4-((1-(2-methyl-3-(trifluoromethyl)phenyl)ethyl)amino)pyr ido[3,4-d]pyridazin-7(6H)-one] | 49.2
